{
  "source": "paper PMC8745505",
  "about": "“In Vitro Investigation of Binding Interactions between Albumin–Gliclazide Model and Typical Hypotensive Drugs” (International Journal of Molecular Sciences, 2021)",
  "key": {"[1]": {"target": "T1, bovine serum albumin (BSA) (Bos taurus, UniProt P02769)", "T1 sequence (P02769 25-607)": "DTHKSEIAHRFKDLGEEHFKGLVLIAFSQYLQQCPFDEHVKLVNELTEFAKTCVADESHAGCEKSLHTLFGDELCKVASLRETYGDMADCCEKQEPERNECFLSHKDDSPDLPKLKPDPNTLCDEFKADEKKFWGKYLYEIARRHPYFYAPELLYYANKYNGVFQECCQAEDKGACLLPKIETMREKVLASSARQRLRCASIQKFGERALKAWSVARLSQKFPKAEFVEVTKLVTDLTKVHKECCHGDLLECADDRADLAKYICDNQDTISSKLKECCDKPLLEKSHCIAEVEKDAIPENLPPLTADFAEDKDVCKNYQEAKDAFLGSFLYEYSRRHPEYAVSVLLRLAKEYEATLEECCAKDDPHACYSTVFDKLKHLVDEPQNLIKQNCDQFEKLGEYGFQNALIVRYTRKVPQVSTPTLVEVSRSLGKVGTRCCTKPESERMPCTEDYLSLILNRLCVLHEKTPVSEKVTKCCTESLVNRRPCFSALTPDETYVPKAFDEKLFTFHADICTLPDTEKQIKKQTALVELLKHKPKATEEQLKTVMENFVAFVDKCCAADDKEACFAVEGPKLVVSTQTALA", "method": "(§1) Bovine serum albumin (≥96%) was used to prepare 1.2 mM stock solution in PBS (pH 7.4). […] The concentration of BSA was controlled by the spectrophotometric method at 280 nm (with a molar coefficient of 43,824 cm^−1 M^−1). […] Simultaneously, a control sample containing BSA solution without any ligands was prepared. Measurements were performed in triplicate. All reagents were received from Sigma-Aldrich (St. Luis, MO, USA).\nThe circular dichroism spectra data were recorded using JASCO J-1500 spectropolarimeter (Tokyo, Japan) in the range of 205–250 nm, with a scanning speed of 200 nm/min and with 0.1 step resolution using a quartz cuvette with a length path of 0.1 cm. The measurements were conducted for binary (BSA–DRUG) and ternary (BSA–DRUG–GLICL) models to provide information about the influence of ligand binding on the protein structure. The baseline was corrected using a phosphate buffer, pH = 7.4.\nMean residue ellipticity (MRE) was calculated according to the following Equation (7) and expressed in deg cm^2 dmol^−1:(7) MRE=Θobs/cp·n·l·10 where Θobs is the observed CD (in mdegree), Cp is the molar concentration of BSA, n is the number of amino acid residues (583 for BSA), and l is the path length of the cuvette (0.1 cm).\nThe α-helical contents of free and modified BSA were calculated from MRE values at 208 nm with Equation (8):(8) α-helix (%)=MRE208−4000/33,000−4000 ·100 where MRE208 is the observed MRE value at 208 nm, 4000 is the MRE of the β-form and random coil conformation cross at 208 nm, and 33,000 is the MRE value of the pure α-helix of BSA at 208 nm."}, "[2]": {"target": "T1, bovine serum albumin (BSA)", "conditions": "for Stern–Volmer quenching constant KSV: GLICL as quencher 0–14 µM, DRUG 8 µM (DRUG:BSA 4:1), λex 280 nm", "method": "as §1\nFluorescence intensities of ternary models (BSA–DRUG–GLICL) were recorded using a Jasco FP-8200 spectrofluorometer with Peltier-thermo Cell Holder ETC-814 (Tokyo, Japan) at excitation wavelength of 280 nm, equipped with 1.0 cm quartz cells. The slit widths were set at 5 nm. The measurements were conducted at two different temperatures, 298 and 310 K. The fluorescence spectra of the drugs alone were also recorded. Each spectrum background was corrected by subtracting the spectrum of the phosphate buffer as a blank sample.\nAccording to the assumption that fluorophores in a protein molecule may differ in accessibility, modified Stern–Volmer Equation (2) was used for the construction of plots and to calculate quenching constants:(2) F0/F0−F=1/fa·KSV·Q+1/fa where F0 and F are the fluorescence intensities in the absence and presence of gliclazide (GLICL), respectively; fa is the fraction of the initial fluorescence accessible to the quencher; Ksv is the Stern–Volmer quenching constant; and Q is the concentration of the quencher (GLICL).\nThe binding parameters (binding constant and number of binding sites) were obtained from double-log modified Stern–Volmer Equation (3):(3) logF0−F/F=logKa+n·logQ where F0 and F are the fluorescence intensities in the absence and presence of the quencher (gliclazide), respectively; Ka is the binding constant of the complex BSA–DRUG–GLICL, expressed as M^−1; n is the number of bound gliclazide molecules; and Q is the concentration of the quencher (GLICL)."}, "[3]": {"target": "T1, bovine serum albumin (BSA)", "method": "as §1\nThe thermodynamic analysis of the interaction between albumin and GLICL was performed on measurements at three temperatures (298, 303, 310 K) based on the van’t Hoff Equations (4)–(6):(4) ΔG=−R·T·lnKa (5) ΔG=ΔH−T·ΔS (6) lnKa=−ΔH/R·T+ΔS/R where ΔG is the free energy change, ΔH is the enthalpy change, ΔS is the entropy change, R is the universal gas constant, and T is the temperature.", "remark": "listed apart in the source"}, "plasma protein": {"system": "plasma protein", "conditions": "cited from earlier work; for Binding to plasma protein: general statement, no reference given"}, "albumin": {"system": "albumin", "conditions": "cited from earlier work"}, "BSA": {"system": "BSA", "design": "method as in PMID 28888191", "conditions": "no additional ligand, cited from earlier work"}, "[4]": {"conditions": "BSA–GLICL complex in presence of DRUG, 298 303 310 K"}},
  "note": "“And” between values parts separate entries of the source, which are not always exact repeats. Equal entries are not always repeated. Structures can show the parent of a compound that is named as a salt. Where two headings read alike, the source gives them in different places.",
  "data": [
    {"smiles": "CCOC(=O)C1=C(COCCN)NC(C)=C(C(=O)OC)C1c1ccccc1Cl", "note": "(stereo not drawn) [AML, amlodipine besylate]", "values": [
      {"measurement": "Decreased α-Helix (%)", "setting": "[1]", "result": 0.7, "unit": "%"},
      {"measurement": "Ka, association constant of BSA–GLICL complex in presence of DRUG", "setting": "[2]", "result": "1.15 ± 0.01 10^4 M^−1"},
      {"measurement": "n, number of binding sites (bound gliclazide molecules)", "setting": "[2]", "result": "0.93 ± 0.01 and 0.97 ± 0.01"},
      {"measurement": "ΔS", "setting": "[3]", "result": 100.32, "unit": "J/mol K"},
      {"measurement": "Binding to plasma protein", "setting": "plasma protein", "result": "over 95%"}
    ]},
    {"smiles": "CC(C)NCC(O)COc1ccc(CC(N)=O)cc1", "note": "(stereo not drawn) [ATN, atenolol]", "values": [
      {"measurement": "Association constant, site 1 of albumin", "setting": "albumin", "result": "approx. 10^3 M^−1"}
    ]},
    {"smiles": "Cc1ccc(S(=O)(=O)NC(=O)NN2CC3CCCC3C2)cc1", "note": "(stereo not drawn) [GLICL, gliclazide]", "values": [
      {"measurement": "Ka of BSA–GLICL (binary model)", "setting": "BSA; 298 K", "result": "3.80 10^4 M^−1"},
      {"measurement": "Ka of BSA–GLICL (binary model)", "setting": "BSA; 310 K", "result": "3.76 10^4 M^−1"},
      {"measurement": "Plasma protein binding", "setting": "plasma protein", "result": "up to 94%"}
    ]},
    {"smiles": "CCOC(=O)[C@H](CCc1ccccc1)N[C@@H](C)C(=O)N1Cc2ccccc2C[C@H]1C(=O)O", "note": "[QUI, quinapril hydrochloride]", "values": [
      {"measurement": "α-Helix Content (%)", "setting": "[1]; binary BSA–DRUG, molar ratio 1:4, 310 K (BSA alone 68.7)", "result": 67.6, "unit": "%"},
      {"measurement": "Decreased α-Helix (%)", "setting": "[1]; binary BSA–DRUG, molar ratio 1:4, 310 K, vs BSA alone", "result": 1.1, "unit": "%"},
      {"measurement": "α-Helix Content (%)", "setting": "[1]; ternary BSA–DRUG–GLICL, BSA:Ligand 1:4, BSA:GLICL 1:7, 310 K (BSA alone 68.7)", "result": 63.1, "unit": "%"},
      {"measurement": "Decreased α-Helix (%)", "setting": "[1]; ternary BSA–DRUG–GLICL, BSA:Ligand 1:4, BSA:GLICL 1:7, 310 K, vs BSA alone", "result": 5.6, "unit": "%"},
      {"measurement": "n, number of binding sites (bound gliclazide molecules)", "setting": "[2]; BSA–DRUG–GLICL, 298 K", "result": "1.04 ± 0.01"},
      {"measurement": "n, number of binding sites (bound gliclazide molecules)", "setting": "[2]; BSA–DRUG–GLICL, 310 K", "result": "1.03 ± 0.03"},
      {"measurement": "Ka, association constant of BSA–GLICL complex in presence of DRUG", "setting": "[2]; BSA–DRUG–GLICL, DRUG:BSA 4:1, 298 K", "result": "1.65 ± 0.02 10^4 M^−1"},
      {"measurement": "Ka, association constant of BSA–GLICL complex in presence of DRUG", "setting": "[2]; BSA–DRUG–GLICL, DRUG:BSA 4:1, 310 K", "result": "2.09 ± 0.07 10^4 M^−1"},
      {"measurement": "Stern–Volmer quenching constant KSV", "setting": "[2]; BSA–DRUG–GLICL, 298 K", "result": "2.23 ± 0.01 10^4 M^−1"},
      {"measurement": "Stern–Volmer quenching constant KSV", "setting": "[2]; BSA–DRUG–GLICL, 310 K", "result": "0.96 ± 0.16 10^4 M^−1"},
      {"measurement": "Mechanism of quenching of BSA fluorescence by GLICL in presence of DRUG", "setting": "[2]; from temperature dependence of KSV, 298 vs 310 K", "result": "static mechanism"},
      {"measurement": "Change of Ka of BSA–GLICL complex in comparison to the binary model", "setting": "[2]; ternary vs binary model (binary Ka from ref 24)", "result": "more than a twofold decrease"},
      {"measurement": "ΔH", "setting": "[3]; [4]", "result": 3.604, "unit": "kcal/mol"},
      {"measurement": "ΔS", "setting": "[3]; [4]", "result": 131.36, "unit": "J/mol K"},
      {"measurement": "ΔG", "setting": "[3]; BSA–GLICL complex in presence of DRUG, 298 K", "result": -5.753, "unit": "kcal/mol"},
      {"measurement": "ΔG", "setting": "[3]; BSA–GLICL complex in presence of DRUG, 303 K", "result": -5.908, "unit": "kcal/mol"},
      {"measurement": "ΔG", "setting": "[3]; BSA–GLICL complex in presence of DRUG, 310 K", "result": -6.128, "unit": "kcal/mol"},
      {"measurement": "Binding to plasma protein", "setting": "plasma protein", "result": "over 95%"}
    ]},
    {"smiles": "CCCCC(=O)N(Cc1ccc(-c2ccccc2-c2nnn[nH]2)cc1)[C@H](C(=O)O)C(C)C", "note": "[VAL, valsartan]", "values": [
      {"measurement": "Decreased α-Helix (%)", "setting": "[1]", "result": "1.0% and 3.5%"},
      {"measurement": "α-Helix Content (%)", "setting": "[1]", "result": "67.7% and 65.2%"},
      {"measurement": "Ka, association constant of BSA–GLICL complex in presence of DRUG", "setting": "[2]", "result": "0.12 ± 0.04 10^4 M^−1"},
      {"measurement": "Mechanism of quenching of BSA fluorescence by GLICL in presence of DRUG", "setting": "[2]", "result": "static mechanism"},
      {"measurement": "n, number of binding sites (bound gliclazide molecules)", "setting": "[2]", "result": "0.87 ± 0.01 and 0.74 ± 0.02"},
      {"measurement": "ΔG", "setting": "[3]", "result": -5.21, "unit": "kcal/mol"},
      {"measurement": "ΔH", "setting": "[3]", "result": 23.924, "unit": "kcal/mol"},
      {"measurement": "ΔS", "setting": "[3]", "result": 393.25, "unit": "J/mol K"},
      {"measurement": "Protein binding", "setting": "plasma protein", "result": 95, "unit": "%"}
    ]}
  ]
}
